Where “and” joins values, the source holds several entries; their conditions need not be identical. Identical values can stand only once.
Key:
NCI-H460 (EGFR-WT) = test: MTT cell viability assay; type: cell-based, human
Description: All of the other chemicals and reagents were from Sigma, or Invitrogen.
Measure the background absorbance of multiwell plates at 690 nm and subtract from the 570 nm measurement. […] Each experiment was carried out in triplicate.

NCI-H226 = test: MTT cell viability assay; type: cell-based; details: Homo sapiens, NCI-H226 lung cancer, 48 h, mean ± SD of three experiments, read-out: IC50 (concentration required for 50% inhibition of cell viability)
Description: (§1) Cell Line cells were obtained from American Type Culture Collection, cells were cultured using Dulbecco's Modified Eagle's medium (DMEM) (Invitrogen/Life Technologies) supplemented with 10% foetal bovine serum (FBS) (Hyclone), 10 μg/mL of insulin (Sigma), and 1% penicillin-streptomycin. All of the other chemicals and reagents were from Sigma, or Invitrogen. Plate cells (cells density 1.2 – 1.8 × 10,000 cells/well) in a volume of 100 µL complete growth medium and 100 μL of the tested compound per well in a 96-well plate for 24 h before the MTT assay.
Remove culture medium to a centrifuge tube. […] Add 2.0 to 3.0 ml of Trypsin EDTA solution to flask and observe cells under an inverted microscope until cell layer is dispersed. Add 6 to 8 ml of complete growth medium and aspirate cells by gently pipetting. […]
The 3–(4, 5-dimethylthiazol-2-yl)-2,5-diphenyltetrazolium bromide (MTT) method[30] of monitoring in vitro cytotoxicity is well suited for use with multiwell plates. […] The number of living cells in the presence or absence (control) of the various test compounds is directly proportional to the intensity of the blue colour, measured by spectrophotometry using (ROBONIK P2000 Spectrophotometer) at a wavelength of 570 nm. Measure the background absorbance of multiwell plates at 690 nm and subtract from the 570 nm measurement. […]

ErbB2 = biological target: T1, ErbB2 (Homo sapiens, UniProt P04626); test: ErbB2 kinase inhibition (HTScan HER2/ErbB2 Kinase Assay Kit); type: biochemical; details: mean ± SD of three experiments; read-out: IC50 for inhibitory activity against ErbB2 enzyme
T1 construct: purchased
T1 sequence (P04626 23-1255): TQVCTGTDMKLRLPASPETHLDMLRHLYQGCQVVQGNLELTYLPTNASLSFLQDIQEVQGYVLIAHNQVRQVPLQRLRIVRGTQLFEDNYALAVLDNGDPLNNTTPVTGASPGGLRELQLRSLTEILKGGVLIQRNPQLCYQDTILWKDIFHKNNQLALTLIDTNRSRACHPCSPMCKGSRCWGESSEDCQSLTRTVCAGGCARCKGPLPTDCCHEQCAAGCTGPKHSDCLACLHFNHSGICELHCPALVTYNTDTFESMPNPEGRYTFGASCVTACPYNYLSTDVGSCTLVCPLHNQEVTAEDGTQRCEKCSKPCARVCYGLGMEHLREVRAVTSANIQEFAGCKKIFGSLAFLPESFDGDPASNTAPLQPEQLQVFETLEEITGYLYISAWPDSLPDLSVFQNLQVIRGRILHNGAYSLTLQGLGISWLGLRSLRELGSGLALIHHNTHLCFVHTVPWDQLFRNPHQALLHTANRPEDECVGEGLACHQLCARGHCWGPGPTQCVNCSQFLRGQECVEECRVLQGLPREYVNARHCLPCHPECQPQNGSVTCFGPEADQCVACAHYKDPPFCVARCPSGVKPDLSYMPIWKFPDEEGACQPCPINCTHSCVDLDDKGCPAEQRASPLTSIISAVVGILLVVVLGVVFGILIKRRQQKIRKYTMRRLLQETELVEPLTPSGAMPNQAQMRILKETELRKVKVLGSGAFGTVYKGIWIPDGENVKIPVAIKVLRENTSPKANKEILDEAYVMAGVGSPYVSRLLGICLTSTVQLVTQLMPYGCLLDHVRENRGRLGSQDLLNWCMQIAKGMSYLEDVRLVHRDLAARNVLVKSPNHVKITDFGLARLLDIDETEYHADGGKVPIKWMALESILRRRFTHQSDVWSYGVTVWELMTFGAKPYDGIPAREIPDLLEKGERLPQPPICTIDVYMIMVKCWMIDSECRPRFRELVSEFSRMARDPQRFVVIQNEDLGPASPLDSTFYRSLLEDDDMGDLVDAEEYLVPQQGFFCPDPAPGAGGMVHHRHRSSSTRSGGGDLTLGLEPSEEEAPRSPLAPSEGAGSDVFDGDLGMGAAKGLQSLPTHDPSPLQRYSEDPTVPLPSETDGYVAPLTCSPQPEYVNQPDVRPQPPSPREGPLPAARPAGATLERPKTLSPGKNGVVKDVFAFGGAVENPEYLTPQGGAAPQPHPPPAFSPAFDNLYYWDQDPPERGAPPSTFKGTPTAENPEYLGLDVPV
Description: In brief, add 10 μL of 10 mM ATP to 1.25 ml of 6 μM substrate peptide. Dilute the mixture with dH20 to 2.5 ml. Transfer enzyme from −80 °C to ice. Allow enzyme to thaw on ice. Micro-centrifuge briefly at 4 °C. Return immediately to ice. […] Transfer 1.2 ml of DTT/Kinase buffer to each enzyme. […] Add 25 μL of ATP/substrate cocktail to 25 μL/well pre-incubated reaction cocktail/compound. Incubate reaction plate at room temperature for 30 min. Add 50 μL/well stop buffer to stop the reaction. Transfer 25 μL of each reaction and 75 μL dH2O/well to a 96-well streptavidin coated, plate and incubate at room temperature for 60 min. Wash three times with 200 μL/well phosphate-buffered saline (PBS). […] Add 100 μL/well primary antibody. Incubate at room temperature for 60 min and wash three times. Prepare appropriate dilution of horseradish peroxidase (HRP) labelled secondary antibody in PBS with 1% BSA. Add 100 μL/well secondary antibody solution. Incubate at room temperature for 30 min and wash five times. Add 100 μL/well 3,3′,5,5′-tetramethylbenzidine (TMB) substrate. Incubate at room temperature for 15 min. Add 100 μL/well of stop solution. Mix well and read the absorbance at 450 nm with a microtitre plate reader.

OVCAR-4 cells = test: Annexin V-FITC/PI apoptosis assay; type: cell-based, human
Description: Annexin V fluorescein isothiocyanate (FITC)/PI apoptosis detection kit (BD Biosciences) was used according to the manufacturer’s instructions to measure the apoptotic activity of compound 7d. OVCAR-4 cells were incubated with Annexin V-FITC. […] The cells then were collected by trypsinisation and 0.5 × 10^6 cells were washed twice with PBS and stained with 5 μL Annexin V-FITC and 5 μL PI in 1 × binding buffer for 15 min at room temperature in the dark. Analyses were performed using FACS Calibur flow cytometer (BD Biosciences, San Jose, CA).
The apoptotic activity of compound 7d was further studied using Annexin V-FITC assay, which includes dual staining using Annexin V, a Ca^2+-dependent protein, and Propidium iodide (PI). Annexin V binds to phosphatidylserine (PS) expressed only on the surface of the apoptotic cells and fluoresces green after interacting with the fluorochrome labelled annexin-V. On the other hand, PI stains DNA and enters only dead cells. This assay can give a differential analysis to the percentages of living, early apoptotic, late apoptotic and necrotic cells. […] Moreover, a significant increase in the percentage of Annexin-V positive cells (almost 9 folds more than control) occurred indicating an early apoptosis (lower right quadrant). In addition, an increase by 7 folds more than control in the percentage of PI positive cells (upper left quadrant) indicating necrotic cells. Some treated cells were in a late apoptotic stage (upper right quadrant), this was indicated by the significant increase in the percentage of Annexin V positive, PI positive cells (16 folds more than control).

OVCAR-4 = test: MTT cell viability assay; type: cell-based, human
Description: as §1
(§2) Remove culture medium to a centrifuge tube. […] Add 2.0 to 3.0 ml of Trypsin EDTA solution to flask and observe cells under an inverted microscope until cell layer is dispersed. Add 6 to 8 ml of complete growth medium and aspirate cells by gently pipetting. Transfer the cell suspension to the centrifuge tube with the medium and centrifuge for 5 to 10 min. Discard the supernatant. Resuspend the cell pellet in fresh growth medium. Add appropriate aliquots of the cell suspension to new culture vessels. Incubate cultures at 37 °C for 24 h. After treatment of cells with the serial concentrations of the compound to be tested incubation is carried out for 48 h at 37 °C, then the plates are to be examined under the inverted microscope and proceed for the MTT assay.
(§3) The 3–(4, 5-dimethylthiazol-2-yl)-2,5-diphenyltetrazolium bromide (MTT) method[30] of monitoring in vitro cytotoxicity is well suited for use with multiwell plates. The assessment of cell population growth is based on the capability of living cells to reduce the yellow product MTT to a blue product, formazan, by a reduction reaction occurring in the mitochondria. The five cell lines were incubated for 24 h in 96-microwell plates. The number of living cells in the presence or absence (control) of the various test compounds is directly proportional to the intensity of the blue colour, measured by spectrophotometry using (ROBONIK P2000 Spectrophotometer) at a wavelength of 570 nm. Measure the background absorbance of multiwell plates at 690 nm and subtract from the 570 nm measurement. Five concentrations ranging from 0.01 μM to 100 μM (with semi-log decrease in concentration) were tested for each of the compounds under study. Each experiment was carried out in triplicate. The IC50 values [the concentration required for 50% inhibition of cell viability] were calculated using sigmoidal dose response curve-fitting models.

NCI-H460 = test: MTT cell viability assay; type: cell-based, human
Description: as §1, §2, §3

ACHN = test: MTT cell viability assay; type: cell-based, human
Description: as §1, §2, §3

human active caspase-3 = test: Active caspase-3 level (ELISA) in OVCAR-4 cells; type: cell-based; details: OVCAR-4 cells treated at IC50 for 24 h
Description: The level of human active caspase-3 protein was evaluated using Invitrogen (Catalog KHO1091) ELISA kit. The manufacturer’s instructions were followed in the following procedures. Add 100 μL of the standard diluent buffer to the zero standard wells. Add 100 μL of standards and controls or diluted samples to the appropriate microtitre wells. Cover wells with and incubate for 2 h at room temperature. Thoroughly aspirate or decant solution from wells and discard the liquid. Pipette 100 μL of caspase-3 (active) detection antibody solution into each well. Cover plate and incubate for 1 h at room temperature. Add 100 μL Anti-Rabbit IgG HRP working solution to each well. Cover wells with the plate cover and incubate for 30 min at room temperature. Add 100 μL of stabilised chromogen to each well. The liquid in the wells will begin to turn blue. Incubate for 30 min at room temperature. Stop solution has been added to each well. The solution in the wells should change from blue to yellow. Read the plate within 2 h after adding the stop solution. Use a curve fitting software to generate the standard curve.
EGFR and ErbB2 tyrosine kinase inhibitors are well known to potentiate the intrinsic apoptotic pathway via increase in caspase-3 enzyme activity[34]^,[35].

Structure (SMILES): Cc1nn(-c2ccc(F)cc2)c2ncnc(Nc3ccc(F)c(Cl)c3)c12 [Compound 7d, N-(3-Chloro-4-fluorophenyl)-1–(4-fluorophenyl)-3-methyl-1H-pyrazolo[3,4-d] pyrimidin-4-amine]
- IC50 (NCI-H460 (EGFR-WT); Homo sapiens, NCI-H460 (EGFR-WT) lung cancer, MTT, 48 h, mean ± SD of three experiments, read-out: IC50 (concentration required for 50% inhibition of cell viability)): 18.7 ± 0.71 µM
- Potency relative to Erlotinib (fold more potent) (NCI-H460 (EGFR-WT); NCI-H460 EGFR-WT, from IC50 values): ~3.5 fold
- IC50 (NCI-H226): 17.4 ± 2.13 µM
- IC50 (ErbB2): 0.25 µM and 0.254 µM
- %Apoptosis Early (OVCAR-4 cells; OVCAR-4, 7d at IC50 (1.74 μM), 24 h, lower right quadrant): 7.52%
- %Necrosis (OVCAR-4 cells; OVCAR-4, 7d at IC50 (1.74 μM), 24 h, upper left quadrant): 2.88%
- %Apoptosis Late (OVCAR-4 cells; OVCAR-4, 7d at IC50 (1.74 μM), 24 h, upper right quadrant): 11.31%
- Increase in percentage of Annexin V positive, PI positive cells (late apoptosis) versus control (OVCAR-4 cells; OVCAR-4, at IC50, 24 h): 16 folds
- Increase in percentage of Annexin-V positive cells (early apoptosis) versus control (OVCAR-4 cells; OVCAR-4, at IC50, 24 h): ~9 folds
- Increase in percentage of PI positive cells (necrotic cells) versus control (OVCAR-4 cells; OVCAR-4, at IC50, 24 h): 7 folds
- IC50 (OVCAR-4; Homo sapiens, OVCAR-4 ovarian cancer, MTT, 48 h, mean ± SD of three experiments, read-out: IC50 (concentration required for 50% inhibition of cell viability)): 1.74 ± 0.06 µM
- Potency relative to Erlotinib (fold more potent) (OVCAR-4; OVCAR-4, from IC50 values): 1.6 fold
- IC50 (NCI-H460; Homo sapiens, NCI-H460 lung cancer, MTT, 48 h, mean ± SD of three experiments, read-out: IC50 (concentration required for 50% inhibition of cell viability)): 4.44 ± 0.26 µM
- Potency relative to Erlotinib (fold more potent) (NCI-H460; NCI-H460, from IC50 values): 1.9 fold
- Potency relative to Erlotinib (fold more potent) (ACHN; ACHN, from IC50 values): 2.2 fold
- IC50 (ACHN; Homo sapiens, ACHN renal cancer, MTT, 48 h, mean ± SD of three experiments, read-out: IC50 (concentration required for 50% inhibition of cell viability)): 5.53 ± 0.31 µM
- Increase in the level of active caspase-3 compared to control (human active caspase-3): 10.8 fold and 11 fold
- Caspase3 conc. (human active caspase-3; mean ± SD of three experiments): 568.50 ± 14.0 pg/mL
